The results in this text go back to patent US20260285846A1, “REV-ERB AGONISTS FOR TH17-MEDIATED INFLAMMATORY DISORDERS” (UNIVERSITY OF FLORID RESEARCH FOUNDATION, iNCORPORATED, priority 2021, published 2026).

The target in this test is REV-ERBα LBD (Homo sapiens, UniProt P20393, DEL324-422). Kind of test: biochemical. Conditions: FRET assay; 6xHistag-REV-ERBα LBD with FITC-labeled SMRT corepressor peptide; read-out: REVERBα (Agonism of REV-ERBα, EC50). The protocol:
TR-FRET corepressor interaction assay. The time-resolved fluorescence resonance energy transfer (TR-FRET) assay was performed in black low-volume 384-well plates (Greiner). Each well contained 4 nM 6×Histag-REV-ERBα LBD (human; residues 281-614 A324-422) or 6×Histag-REV-ERBα LBD (human; residues 381-579) protein expressed in and purified from Escherichia coli using nickel affinity and size exclusion chromatography; 1 nM LanthaScreen Elite Tb-anti-HIS Antibody (Thermo Fisher Scientific); and 400 nM FITC-labeled peptide derived from the SMRT corepressor ([…]) containing a N-terminal FITC label with a six-carbon linker (Ahx) and an amidated C-terminus for stability (synthesized by LifeTein) in TR-FRET buffer (20 mM potassium phosphate, pH 7.4, 50 mM potassium chloride, 1 mM dithiothreitol, and 0.005% Tween-20). Ligand stocks were prepared via serial dilution in DMSO, added to wells in triplicate, and plates were incubated at 4° C. for 2 h and read using a BioTek Synergy Neo multimode plate reader. The Tb donor was excited at 340 nm; its fluorescence emission was monitored at 495 nm, and the acceptor FITC emission was measured at 520 nm; and the TR-FRET ratio was calculated as the signal at 520 nm divided by the signal at 495 nm. Data were plotted using GraphPad Prism as TR-FRET ratio vs. ligand concentration and fit to sigmoidal dose response curve equation.
Exemplary compounds of the present disclosure were assayed as described above to assess agonism of REV-ERBα. Results of the FRET assay are shown in Table 2 below (A: EC50<100 nM; B: EC50 100 nM-1000 nM; C: EC50>1000 nM; NT: not tested).

Sequence of REV-ERBα LBD (P20393 with tags, fused parts or gaps DEL324-422): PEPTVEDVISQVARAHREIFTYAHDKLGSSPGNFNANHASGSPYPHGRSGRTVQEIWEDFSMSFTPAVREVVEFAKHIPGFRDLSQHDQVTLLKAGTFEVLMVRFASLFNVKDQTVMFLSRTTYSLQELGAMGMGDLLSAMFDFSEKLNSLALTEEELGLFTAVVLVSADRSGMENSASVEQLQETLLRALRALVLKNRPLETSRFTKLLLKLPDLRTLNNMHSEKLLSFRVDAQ
Sequence of REV-ERBα LBD (Q9Y618 2335-2356 partner limits assumed): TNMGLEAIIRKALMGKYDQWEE

Take `CC(C)(C)Cn1cc([C@H](NS(=O)(=O)C2CCC2)C(F)F)c2ccc(-c3cccnc3C(F)(F)F)cc21` [Compound 14, (S)—N-(2,2-difluoro-1-(1-neopentyl-6-(2-(trifluoromethyl)pyridin-3-yl)-1H-indol-3-yl)ethyl)cyclobutanesulfonamide]: the 50% effective concentration (EC50) was less than 100 nM. The value for `Cc1ccccc1-c1ccc2c([C@H](NS(=O)(=O)C3CC3)C(F)F)cn(CC(C)(C)C)c2c1` [Compound 15, (S)—N-(2,2-difluoro-1-(1-neopentyl-6-(o-tolyl)-1H-indol-3-yl)ethyl)cyclopropanesulfonamide] was less than 100 nM; that for `CC(C)(C)Cn1cc([C@H](NS(=O)(=O)C2CC2)C(F)F)c2cc(F)c(C3=CCOCC3)cc21` [Compound 16, (S)—N-(1-(6-(3,6-dihydro-2H-pyran-4-yl)-5-fluoro-1-neopentyl-1H-indol-3-yl)-2,2-difluoroethyl)cyclopropanesulfonamide] was less than 100 nM; that for `CN(C)S(=O)(=O)N[C@@H](c1cn(CC(C)(C)C)c2cc(-c3ccccc3C(F)(F)F)ccc12)C(F)F` [Compound 21] was less than 100 nM. For `CC(C)(C)Cn1cc([C@H](NS(=O)(=O)C2CC(F)C2)C(F)F)c2ccc(-c3ccccc3C(F)(F)F)cc21` (stereo partly drawn) [Compound 22, (S)—N-(2,2-difluoro-1-(1-neopentyl-6-(2-(trifluoromethyl)phenyl)-1H-indol-3-yl)ethyl)-3-fluorocyclobutane-1-sulfonamide], the EC50 is less than 100 nM. The value for `Cc1ccccc1-c1ccc2c([C@H](NS(=O)(=O)C3CC(F)(F)C3)C(F)F)cn(CC(C)(C)C)c2c1` [Compound 30, (S)—N-(2,2-difluoro-1-(1-neopentyl-6-(o-tolyl)-1H-indol-3-yl)ethyl)-3,3-difluorocyclobutane-1-sulfonamide] was 100 to 1000 nM. The value for `CC(C)(C)Cn1cc([C@H](NS(=O)(=O)N2CCC2)C(F)F)c2cc(F)c(-c3ccccc3C(F)(F)F)cc21` [Compound 31, (S)—N-(2,2-difluoro-1-(5-fluoro-1-neopentyl-6-(2-(trifluoromethyl)phenyl)-1H-indol-3-yl)ethyl)azetidine-1-sulfonamide] was less than 100 nM. The value for `CC(NS(=O)(=O)C1CC1)c1cn(CC(C)(C)C)c2cc(C3CCOC3)c(F)cc12` (centres unmarked) [Compound 34, N-(1-(5-fluoro-1-neopentyl-6-(tetrahydrofuran-3-yl)-1H-indol-3-yl)ethyl)cyclopropanesulfonamide] was less than 100 nM; that for `CC(NS(=O)(=O)C1CC1)c1cn(CC(C)(C)C)c2cc(C3CCOCC3)c(F)cc12` (centres unmarked) [Compound 35] was less than 100 nM.

For the compound `Cc1ncccc1-c1cc2c(cc1F)c(C(C)NS(=O)(=O)C1CC1)cn2CC(C)(C)C` (centres unmarked) [Compound 36, N-(1-(5-fluoro-6-(2-methylpyridin-3-yl)-1-neopentyl-1H-indol-3-yl)ethyl)cyclopropanesulfonamide], the concentration giving a half-maximal response (EC50) was less than 100 nM. `CC(NS(=O)(=O)C1CC1)c1cn(CC(C)(C)C)c2cc(-c3cncc(C#N)c3)c(F)cc12` (centres unmarked) [Compound 37, N-[1-[6-(5-cyano-3-pyridyl)-1-(2,2-dimethylpropyl)-5-fluoro-indol-3-yl]ethyl]cyclopropanesulfonamide]: the concentration for a half-maximal effect (EC50) was 100 to 1000 nM. To `CC(C)(C)Cn1cc([C@H](NS(=O)(=O)C2CC2)C(F)F)c2cc(F)c(-c3cccnc3C(F)(F)F)cc21` [Compound 38, (S)—N-(2,2-difluoro-1-(5-fluoro-1-neopentyl-6-(2-(trifluoromethyl)pyridin-3-yl)-1H-indol-3-yl)ethyl)cyclopropanesulfonamide] belongs less than 100 nM; to `CC(C)(C)Cn1cc([C@H](NS(=O)(=O)C2CC2)C(F)F)c2ccc(-c3ncccc3C(F)(F)F)cc21` [Compound 39, (S)—N-(2,2-difluoro-1-(1-neopentyl-6-(3-(trifluoromethyl)pyridin-2-yl)-1H-indol-3-yl)ethyl)cyclopropanesulfonamide], less than 100 nM. The value for `CC(C)(C)Cn1cc([C@H](NS(=O)(=O)C2CC2)C(F)F)c2ccc(-c3ncccc3C#N)cc21` [Compound 40, (S)—N-(1-(6-(3-cyanopyridin-2-yl)-1-neopentyl-1H-indol-3-yl)-2,2-difluoroethyl)cyclopropanesulfonamide] was less than 100 nM; that for `CC(C)(C)Cn1cc(C(NS(=O)(=O)C23CC(C2)C3)C(F)F)c2cc(F)c(-c3ccccc3C(F)(F)F)cc21` (centres unmarked) [Compound 41, N-(2,2-difluoro-1-(5-fluoro-1-neopentyl-6-(2-(trifluoromethyl)phenyl)-1H-indol-3-yl)ethyl)bicyclo[1.1.1]pentane-1-sulfonamide] was less than 100 nM. The value for `CC(C)S(=O)(=O)N[C@@H](c1cn(CC(C)(C)C)c2cc(-c3cccnc3C(F)(F)F)c(F)cc12)C(F)F` [Compound 42, (S)—N-(2,2-difluoro-1-(5-fluoro-1-neopentyl-6-(2-(trifluoromethyl)pyridin-3-yl)-1H-indol-3-yl)ethyl)propane-2-sulfonamide] was less than 100 nM; that for `CN(C)S(=O)(=O)N[C@@H](c1cn(CC(C)(C)C)c2cc(-c3cccnc3C(F)(F)F)c(F)cc12)C(F)F` [Compound 43] was less than 100 nM; that for `[2H]C1([2H])CC(S(=O)(=O)N[C@@H](c2cn(CC(C)(C)C)c3cc(-c4cccnc4C(F)(F)F)c(F)cc23)C(F)F)C1` [Compound 45, (S)—N-(2,2-difluoro-1-(5-fluoro-1-neopentyl-6-(2-(trifluoromethyl)pyridin-3-yl)-1H-indol-3-yl)ethyl)cyclobutane-1-sulfonamide-3,3-d2] was less than 100 nM. As to `CC(C)(C)Cn1cc([C@H](NS(=O)(=O)C2CC(F)C2)C(F)F)c2ccc(-c3cccnc3C(F)(F)F)cc21` (stereo partly drawn) [Compound 46, (S)—N-(2,2-difluoro-1-(1-neopentyl-6-(2-(trifluoromethyl)pyridin-3-yl)-1H-indol-3-yl)ethyl)-3-fluorocyclobutane-1-sulfonamide], the EC50 was less than 100 nM. The value for `CC(C)(C)Cn1cc([C@H](NS(=O)(=O)C2CC2)C(F)F)c2ccc(-c3nccnc3C(F)(F)F)cc21` [Compound 47, (S)—N-(2,2-difluoro-1-(1-neopentyl-6-(3-(trifluoromethyl)pyrazin-2-yl)-1H-indol-3-yl)ethyl)cyclopropanesulfonamide] was less than 100 nM; that for `CC(C)(C)Cn1cc([C@H](NS(=O)(=O)C2CC2)C(F)F)c2ccc(-c3nccnc3C#N)cc21` [Compound 48, (S)—N-(1-(6-(3-cyanopyrazin-2-yl)-1-neopentyl-1H-indol-3-yl)-2,2-difluoroethyl)cyclopropanesulfonamide] was 100 to 1000 nM; that for `CC(C)(C)Cn1cc([C@H](NS(=O)(=O)C2CC2)C(F)F)c2ccc(-c3cccnc3C#N)cc21` [Compound 49, (S)—N-(1-(6-(2-cyanopyridin-3-yl)-1-neopentyl-1H-indol-3-yl)-2,2-difluoroethyl)cyclopropanesulfonamide] was less than 100 nM. To `CN(C)S(=O)(=O)N[C@@H](c1cn(CC(C)(C)C)c2cc(-c3nccnc3C(F)(F)F)ccc12)C(F)F` [Compound 51] belongs less than 100 nM; to `CC(C)(C)Cn1cc([C@H](NS(=O)(=O)C2CC2)C(F)F)c2ccc(-c3c(C#N)ccnc3C(F)(F)F)cc21` [Compound 52, (S)—N-(1-(6-(4-cyano-2-(trifluoromethyl)pyridin-3-yl)-1-neopentyl-1H-indol-3-yl)-2,2-difluoroethyl)cyclopropanesulfonamide], 100 to 1000 nM.

Take `CC(C)(C)Cn1cc([C@H](NS(=O)(=O)C2CC2)C(F)F)c2ccc(-c3ncc(F)cc3C(F)(F)F)cc21` [Compound 53, (S)—N-(2,2-difluoro-1-(6-(5-fluoro-3-(trifluoromethyl)pyridin-2-yl)-1-neopentyl-1H-indol-3-yl)ethyl)cyclopropanesulfonamide]: the EC50 was less than 100 nM. The value for `CN(C)S(=O)(=O)N[C@@H](c1cn(CC(C)(C)C)c2cc(-c3ccccc3C(F)(F)F)c(F)cc12)C(F)F` [Compound 54] was less than 100 nM; that for `CC(C)(C)Cn1cc([C@H](NS(=O)(=O)C2CC2)C(F)F)c2cc(F)c(-c3c(C#N)ccnc3C(F)(F)F)cc21` [Compound 55, N-((1S)-1-(6-(4-cyano-2-(trifluoromethyl)pyridin-3-yl)-5-fluoro-1-neopentyl-1H-indol-3-yl)-2,2-difluoroethyl)cyclopropanesulfonamide] was less than 100 nM. Turning to `CC(C)(C)Cn1cc([C@H](NS(=O)(=O)C2CC2)C(F)F)c2cc(F)c(-c3ncc(F)cc3C(F)(F)F)cc21` [Compound 56, (S)—N-(2,2-difluoro-1-(5-fluoro-6-(5-fluoro-3-(trifluoromethyl)pyridin-2-yl)-1-neopentyl-1H-indol-3-yl)ethyl)cyclopropanesulfonamide], the concentration for a half-maximal effect (EC50) is less than 100 nM. To `CC(C)(C)Cn1cc([C@H](NS(=O)(=O)C2CC2)C(F)F)c2cc(F)c(-c3nccnc3C(F)(F)F)cc21` [Compound 57, (S)—N-(2,2-difluoro-1-(5-fluoro-1-neopentyl-6-(3-(trifluoromethyl)pyrazin-2-yl)-1H-indol-3-yl)ethyl)cyclopropanesulfonamide] belongs less than 100 nM.
